Source: patent US20060069132A1, “Azolecarboxamide herbicides” (priority 2004, published 2006)

How the values were obtained:
barnyardgrass [1] = experiment: Test B pre-/postemergence herbicide test; format: in vivo, Echinochloa crus-galli
How it was run: (§1)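 Seeds were planted and treated preemergence with compounds formulated in a non-phytotoxic solvent mixture containing surfactant, while plants at the 1- to 4-leaf stage (2 to 18 cm) received postemergence sprays. Flooded paddy plants were grown to the 2-leaf stage. After 13 to 15 days in a greenhouse, injury was visually rated 0–100 against untreated controls.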

Surinam grass = experiment: Test B pre-/postemergence herbicide test; format: in vivo, Urochloa decumbens
How it was run: (§2)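 Plants compared with untreated controls 13–15 days post-treatment and given a visual 0–100 injury score. Applications: preemergence to seeds; postemergence at 1- to 4-leaf (2–18 cm); paddy species flooded, 2-leaf stage. Vehicle non-phytotoxic, surfactant included.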

cocklebur = experiment: Test B pre-/postemergence herbicide test; format: in vivo, Xanthium strumarium
How it was run: as §1

corn = experiment: Test B pre-/postemergence herbicide test; format: in vivo, Zea mays
How it was run: as §2

large crabgrass = experiment: Test B pre-/postemergence herbicide test; format: in vivo, Digitaria sanguinalis
How it was run: as §2

giant foxtail = experiment: Test B pre-/postemergence herbicide test; format: in vivo, Setaria faberi
How it was run: as §2

lambsquarters = experiment: Test B pre-/postemergence herbicide test; format: in vivo, Chenopodium album
How it was run: as §2

morningglory = experiment: Test B pre-/postemergence herbicide test; format: in vivo, Ipomoea coccinea
How it was run: as §1

pigweed = experiment: Test B pre-/postemergence herbicide test; format: in vivo, Amaranthus retroflexus
How it was run: as §2

rice [2] = experiment: Test B pre-/postemergence herbicide test; format: in vivo, Oryza sativa; conditions: 0 = no effect, 100 = complete control, preemergence; for Rice plant response rating (0 to 100 scale): 125 g ai/ha; for Plant response rating, Rice: 500 g ai/ha, visual rating
How it was run: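 Greenhouse pot assay with simultaneous preemergence (treated seed) and postemergence (2–18 cm seedlings) applications of surfactant-containing, non-phytotoxic solvent formulations. Response scored visually 13–15 days later on a 0–100 scale, 100 meaning complete control.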

velvetleaf = experiment: Test B pre-/postemergence herbicide test; format: in vivo, Abutilon theophrasti
How it was run: as §2

blackgrass = experiment: Test B postemergence herbicide test; format: in vivo, Alopecurus myosuroides
How it was run: (§3)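 Postemergence plants were sprayed with formulated test chemicals at 2 to 18 cm height (1- to 4-leaf stage); paddy species were grown to the 2-leaf stage. After 13 to 15 days in a greenhouse, injury was rated visually against untreated controls on a 0–100 scale (0 = no effect, 100 = complete control).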

wheat = experiment: Test B postemergence herbicide test; format: in vivo, Triticum aestivum; design: key to Wheat plant response rating: 0 = no effect, 100 = complete control
How it was run: as §3

wild oat = experiment: Test B postemergence herbicide test; format: in vivo, Avena fatua
How it was run: as §3

rice [3] = experiment: Test B flooded paddy test; format: in vivo, Oryza sativa; conditions: 1000 g ai/ha, scale 0 to 100 (0 no effect, 100 complete control)
How it was run: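 Formulated test chemicals went onto postemergence plants measuring 2 to 18 cm, at one to four leaves. For the paddy assay, species had reached two leaves. Scoring took place 13–15 days later by eye, relative to untreated plants, using 0 for no effect up to 100 for full control.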

[4] = tested on: small flower umbrella sedge; experiment: Test B flooded paddy test; format: in vivo, Cyperus difformis; conditions: 1000 g ai/ha, scale 0 to 100 (0 no effect, 100 complete control)
How it was run: as §3

ducksalad = experiment: Test B flooded paddy test; format: in vivo, Heteranthera limosa; conditions: 1000 g ai/ha, scale 0 to 100 (0 no effect, 100 complete control)
How it was run: as §3

barnyardgrass [5] = experiment: Test B flooded paddy test; format: in vivo, Echinochloa crus-galli; conditions: 1000 g ai/ha, scale 0 to 100 (0 no effect, 100 complete control)
How it was run: as §3

[6] = 125 g ai/ha; 0 = no effect, 100 = complete control; preemergence
[7] = 500 g ai/ha; visual rating, 0 = no effect, 100 = complete control; preemergence
[8] = postemergence, 125 g ai/ha; visual rating, scale 0 (no effect) to 100 (complete control)
[9] = postemergence, 500 g ai/ha; visual rating, scale 0 (no effect) to 100 (complete control)
[10] = postemergence, 500 g ai/ha; scale 0 to 100, 0 is no effect, 100 is complete control
[11] = 125 g ai/ha; visual rating, scale 0 (no effect) to 100 (complete control); postemergence

Structure (SMILES): CCNC(=O)c1cc(NC(=O)c2cc(C(C)(C)C)nn2CC)ccn1 [Compound 257]
- Barnyardgrass plant response rating (0 to 100 scale) (barnyardgrass [1]; [6]): 0
- Plant response rating, Barnyardgrass (barnyardgrass [1]; [7]): 20
- Barnyardgrass plant response rating (barnyardgrass [1]; [8]): 0
- Barnyardgrass plant response rating (barnyardgrass [1]; [9]): 0
- Surinam Grass plant response rating (0 to 100 scale) (Surinam grass; [6]): 0
- Plant response rating, Surinam Grass (Surinam grass; [7]): 0
- Surinam Grass plant response rating (Surinam grass; [8]): 0
- Surinam Grass plant response rating (Surinam grass; [10]): 20
- Cocklebur plant response rating (0 to 100 scale) (cocklebur; [6]): 0
- Plant response rating, Cocklebur (cocklebur; [7]): 0
- Cocklebur plant response rating (cocklebur; [8]): 0
- Cocklebur plant response rating (cocklebur; [9]): 70
- Corn plant response rating (0 to 100 scale) (corn; [6]): 0
- Plant response rating, Corn (corn; [7]): 0
- Corn plant response rating (corn; [8]): 0
- Corn plant response rating (corn; [10]): 0
- Crabgrass, Large plant response rating (0 to 100 scale) (large crabgrass; [6]): 0
- Crabgrass, Large plant response rating (large crabgrass; [8]): 0
- Crabgrass, Large plant response rating (large crabgrass; [10]): 10
- Foxtail, Giant plant response rating (0 to 100 scale) (giant foxtail; [6]): 0
- Plant response rating, Foxtail, Giant (giant foxtail; [7]): 50
- Foxtail, Giant plant response rating (giant foxtail; [8]): 0
- Foxtail, Giant plant response rating (giant foxtail; [10]): 0
- Lambsquarters plant response rating (0 to 100 scale) (lambsquarters; [6]): 0
- Lambsquarters plant response rating (lambsquarters; [8]): 20
- Lambsquarters plant response rating (lambsquarters; [10]): 50
- Morningglory plant response rating (0 to 100 scale) (morningglory; [6]): 0
- Plant response rating, Morningglory (morningglory; [7]): 0
- Morningglory plant response rating (morningglory; [8]): 0
- Morningglory plant response rating (morningglory; [10]): 0
- Pigweed plant response rating (0 to 100 scale) (pigweed; [6]): 0
- Pigweed plant response rating (pigweed; [8]): 60
- Pigweed plant response rating (pigweed; [10]): 80
- Rice plant response rating (0 to 100 scale) (rice [2]): 0
- Plant response rating, Rice (rice [2]): 0
- Velvetleaf plant response rating (0 to 100 scale) (velvetleaf; [6]): 0
- Plant response rating, Velvetleaf (velvetleaf; [7]): 0
- Velvetleaf plant response rating (velvetleaf; [8]): 0
- Velvetleaf plant response rating (velvetleaf; [10]): 10
- Blackgrass plant response rating (blackgrass; [8]): 0
- Blackgrass plant response rating (blackgrass; [9]): 10
- Wheat plant response rating (wheat; [8]): 0
- Wheat plant response rating (wheat; [10]): 20
- Oat, Wild plant response rating (wild oat; [8]): 10
- Oat, Wild plant response rating (wild oat; [10]): 30
- Rice plant response rating (rice [3]): 30
- Sedge, Umbrella plant response rating [4]: 0
- Ducksalad plant response rating (ducksalad): 50
- Barnyardgrass plant response rating (barnyardgrass [5]): 0

Structure (SMILES): C=CCN(CC=C)C(=O)c1cncc(NC(=O)c2cc(C(C)(C)C)nn2CC)c1 [Compound 262]
- Barnyardgrass plant response rating (0 to 100 scale) (barnyardgrass [1]; [6]): 0
- Plant response rating, Barnyardgrass (barnyardgrass [1]; [7]): 10
- Barnyardgrass plant response rating (barnyardgrass [1]; [8]): 0
- Barnyardgrass plant response rating (barnyardgrass [1]; [9]): 10
- Surinam Grass plant response rating (0 to 100 scale) (Surinam grass; [6]): 0
- Plant response rating, Surinam Grass (Surinam grass; [7]): 10
- Surinam Grass plant response rating (Surinam grass; [8]): 0
- Surinam Grass plant response rating (Surinam grass; [10]): 20
- Cocklebur plant response rating (0 to 100 scale) (cocklebur; [6]): 0
- Cocklebur plant response rating (cocklebur; [8]): 0
- Cocklebur plant response rating (cocklebur; [9]): 10
- Corn plant response rating (0 to 100 scale) (corn; [6]): 0
- Plant response rating, Corn (corn; [7]): 0
- Corn plant response rating (corn; [8]): 0
- Corn plant response rating (corn; [10]): 20
- Crabgrass, Large plant response rating (0 to 100 scale) (large crabgrass; [6]): 0
- Plant response rating, Crabgrass, Large (large crabgrass; [7]): 30
- Crabgrass, Large plant response rating (large crabgrass; [8]): 0
- Crabgrass, Large plant response rating (large crabgrass; [10]): 20
- Foxtail, Giant plant response rating (0 to 100 scale) (giant foxtail; [6]): 0
- Plant response rating, Foxtail, Giant (giant foxtail; [7]): 0
- Foxtail, Giant plant response rating (giant foxtail; [8]): 10
- Foxtail, Giant plant response rating (giant foxtail; [10]): 20
- Lambsquarters plant response rating (0 to 100 scale) (lambsquarters; [6]): 40
- Plant response rating, Lambsquarters (lambsquarters; [7]): 90
- Lambsquarters plant response rating (lambsquarters; [8]): 50
- Lambsquarters plant response rating (lambsquarters; [10]): 80
- Morningglory plant response rating (0 to 100 scale) (morningglory; [6]): 0
- Plant response rating, Morningglory (morningglory; [7]): 0
- Morningglory plant response rating (morningglory; [8]): 0
- Morningglory plant response rating (morningglory; [10]): 0
- Pigweed plant response rating (0 to 100 scale) (pigweed; [6]): 50
- Plant response rating, Pigweed (pigweed; [7]): 100
- Pigweed plant response rating (pigweed; [8]): 70
- Pigweed plant response rating (pigweed; [10]): 80
- Rice plant response rating (0 to 100 scale) (rice [2]): 0
- Plant response rating, Rice (rice [2]): 0
- Velvetleaf plant response rating (0 to 100 scale) (velvetleaf; [6]): 0
- Plant response rating, Velvetleaf (velvetleaf; [7]): 80
- Velvetleaf plant response rating (velvetleaf; [8]): 20
- Velvetleaf plant response rating (velvetleaf; [10]): 20
- Blackgrass plant response rating (blackgrass; [8]): 0
- Blackgrass plant response rating (blackgrass; [9]): 20
- Wheat plant response rating (wheat; [8]): 0
- Wheat plant response rating (wheat; [10]): 10
- Oat, Wild plant response rating (wild oat; [8]): 0
- Oat, Wild plant response rating (wild oat; [10]): 0
- Rice plant response rating (rice [3]): 0
- Sedge, Umbrella plant response rating [4]: 0
- Ducksalad plant response rating (ducksalad): 0
- Barnyardgrass plant response rating (barnyardgrass [5]): 0

Structure (SMILES): CCc1nn(C(C)(C)C)cc1C(=O)Nc1cccc(C(=O)N(C)C)n1 [Compound 292]
- Barnyardgrass plant response rating (0 to 100 scale) (barnyardgrass [1]; [6]): 10
- Barnyardgrass plant response rating (barnyardgrass [1]; [11]): 0
- Plant response rating, Barnyardgrass (barnyardgrass [1]; [7]): 90
- Barnyardgrass plant response rating (barnyardgrass [1]; [10]): 0
- Surinam Grass plant response rating (0 to 100 scale) (Surinam grass; [6]): 20
- Surinam Grass plant response rating (Surinam grass; [11]): 0
- Plant response rating, Surinam Grass (Surinam grass; [7]): 100
- Surinam Grass plant response rating (Surinam grass; [10]): 20
- Cocklebur plant response rating (0 to 100 scale) (cocklebur; [6]): 0
- Cocklebur plant response rating (cocklebur; [11]): 0
- Plant response rating, Cocklebur (cocklebur; [7]): 40
- Cocklebur plant response rating (cocklebur; [10]): 10
- Corn plant response rating (0 to 100 scale) (corn; [6]): 0
- Corn plant response rating (corn; [11]): 10
- Plant response rating, Corn (corn; [7]): 80
- Corn plant response rating (corn; [10]): 20
- Crabgrass, Large plant response rating (0 to 100 scale) (large crabgrass; [6]): 80
- Crabgrass, Large plant response rating (large crabgrass; [11]): 0
- Plant response rating, Crabgrass, Large (large crabgrass; [7]): 100
- Crabgrass, Large plant response rating (large crabgrass; [10]): 10
- Foxtail, Giant plant response rating (0 to 100 scale) (giant foxtail; [6]): 0
- Foxtail, Giant plant response rating (giant foxtail; [11]): 0
- Plant response rating, Foxtail, Giant (giant foxtail; [7]): 70
- Foxtail, Giant plant response rating (giant foxtail; [10]): 20
- Lambsquarters plant response rating (0 to 100 scale) (lambsquarters; [6]): 70
- Lambsquarters plant response rating (lambsquarters; [11]): 30
- Plant response rating, Lambsquarters (lambsquarters; [7]): 100
- Lambsquarters plant response rating (lambsquarters; [10]): 70
- Morningglory plant response rating (0 to 100 scale) (morningglory; [6]): 0
- Morningglory plant response rating (morningglory; [11]): 0
- Plant response rating, Morningglory (morningglory; [7]): 30
- Morningglory plant response rating (morningglory; [10]): 20
- Pigweed plant response rating (0 to 100 scale) (pigweed; [6]): 40
- Pigweed plant response rating (pigweed; [11]): 20
- Plant response rating, Pigweed (pigweed; [7]): 100
- Pigweed plant response rating (pigweed; [10]): 30
- Rice plant response rating (0 to 100 scale) (rice [2]): 0
- Plant response rating, Rice (rice [2]): 90
- Velvetleaf plant response rating (velvetleaf; [11]): 10
- Plant response rating, Velvetleaf (velvetleaf; [7]): 70
- Velvetleaf plant response rating (velvetleaf; [10]): 10
- Blackgrass plant response rating (blackgrass; [11]): 10
- Blackgrass plant response rating (blackgrass; [10]): 20
- Wheat plant response rating (wheat; [11]): 0
- Wheat plant response rating (wheat; [10]): 20
- Oat, Wild plant response rating (wild oat; [11]): 10
- Oat, Wild plant response rating (wild oat; [10]): 40
- Rice plant response rating (rice [3]): 30
- Sedge, Umbrella plant response rating [4]: 60
- Ducksalad plant response rating (ducksalad): 0
- Barnyardgrass plant response rating (barnyardgrass [5]): 20
